From paper PMC6983068, “Identifying Ortholog Selective Fragment Molecules for Bacterial Glutaredoxins by NMR and Affinity Enhancement by Modification with an Acrylamide Warhead” (Molecules, 2019) come the findings set out here.

One assay deals with T1, BrmGRX (Brucella melitensis, UniProt Q8YJA2).
T1 construct: gene BMEI0184
Nature of the assay: biochemical. In kind it is binding.

A further assay concerns the target T2, hGRX1 (Homo sapiens, UniProt P35754).
T2 sequence (P35754 2-106): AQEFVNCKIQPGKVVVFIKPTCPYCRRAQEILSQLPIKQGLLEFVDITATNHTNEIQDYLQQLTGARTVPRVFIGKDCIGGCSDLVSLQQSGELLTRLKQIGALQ
In kind it is binding. The following applies: read-out: hGRX1 Kd ± S.D.

For the next assay, the target named is T3, PaGRX (Pseudomonas aeruginosa, UniProt Q9HU55).
T3 construct: gene grx
T3 sequence (Q9HU55 whole entry): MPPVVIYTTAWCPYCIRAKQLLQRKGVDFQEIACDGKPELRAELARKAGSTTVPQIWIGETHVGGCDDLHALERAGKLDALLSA
The experiment in a line: biochemical.

T1 sequence (Q8YJA2 1-92): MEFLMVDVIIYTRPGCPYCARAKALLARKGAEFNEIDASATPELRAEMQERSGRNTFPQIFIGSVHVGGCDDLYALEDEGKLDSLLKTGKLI

Consider `O=C(O)c1cc(-c2ccco2)[nH]n1` [RK104], for which the Kd on BrmGRX is 900 ± 150 µM; at hGRX1 it was 2890 ± 470 µM; at PaGRX, 720 ± 160 µM.
Taken in the same sequence, the figures for `Cn1nc(-c2ccco2)cc1C(=O)O` [RK144] were 5240 ± 920 µM, 5420 ± 900 µM and 1920 ± 420 µM.
As to `O=C(O)c1ccc(-n2cccn2)cc1` [RK192], the figures for the Kd at BrmGRX, on hGRX1 and at PaGRX were 5560 ± 510 µM, 5050 ± 1270 µM and 5260 ± 1120 µM, respectively.
As to `O=C(O)c1ccc(-n2cccc2)cc1` [RK207], the Kd at hGRX1 was 2450 ± 520 µM; on PaGRX it was 1900 ± 340 µM.
Turning to `Cc1cc2ncc(C(=O)O)c(C)n2n1` [RK208], the Kd came out at 2280 ± 300 µM on BrmGRX, 1610 ± 190 µM at hGRX1 and 560 ± 80 µM on PaGRX.
`Cn1nc(C(=O)O)cc1-c1ccccc1` [RK246]: the figures for the equilibrium dissociation constant (Kd) on hGRX1 and at PaGRX were 5220 ± 1160 µM and 8480 ± 2060 µM, respectively.
For `CN1CCN(C)c2cc(CN)ccc21` [RK395], the dissociation constant Kd at BrmGRX amounted to 5490 ± 3220 µM; at hGRX1, 1860 ± 1150 µM; at PaGRX, 510 ± 370 µM.
